Reference: USRE44733E1, “6-mercapto-cyclodextrin derivatives:reversal agents for drug-induced neuromuscular block” (Merck Sharp & Dohme B.V., priority 1999, dated 2014)

System: neuromuscular block, induced by the muscle relaxant rocuronium bromide (Roc)
Assay: Reversal of neuromuscular blockade in anaesthetized guinea pigs in vivo
Details: for concentration at maximum reversal (at conc.) / % max reversal: anaesthetized guinea pigs, rocuronium bromide steady-state block; for concentration at maximum reversal (at conc.): dose of reversal agent at which % max reversal was seen; for % max reversal: maximum reversal; for ED50: dose producing 50% reversal of steady-state neuromuscular block: anaesthetized male Dunkin-Hartley guinea pigs, steady-state block of 85-90% by continuous rocuronium bromide infusion, reversal agent given by jugular vein catheter, M. gastrocnemius contractions
Experimental: Reversal of Neuromuscular Blockade in Anaesthetized Guinea Pigs in vivo
Male Dunkin-Hartley guinea pigs (bodyweight: 600-900 g) were anaesthetized by i.p. administration of 10 mg/kg pentobarbitone and 1000 mg/kg urethane. After tracheotomy, the animals were artificially ventilated using a Harvard small animal ventilator. A catheter was placed into the carotid artery for continuous monitoring of arterial blood pressure and the taking of blood samples for blood gas analysis. Heart rate was derived from the blood pressure signal. The sciatic nerve was stimulated (rectangular pulses of 0.5 ms duration at 10 s (0.1 Hz) intervals at a supramaximal voltage, using a Grass S88 Stimulator) and the force of M. gastrocnemius contractions was measured using a Grass FT03 force-displacement transducer. Contractions, blood pressure and heart rate were recorded on a multichannel Grass 7D recorder. Catheters were placed in both jugular veins. One catheter was used for the continuous infusion of a neuromuscular blocking agent. The infusion rate of the neuromuscular blocking agent was increased until a steady-state block of 85-90% was obtained. The other catheter was used for administration of increasing doses of the reversal agent. During continuous infusion of the neuromuscular blocking agent, single doses of increasing concentration of reversal agent were given. At the end of the experiment, the measured force of muscle contractions was plotted against the concentration of reversal agent, and using regression analysis techniques, the 50% reversal concentration was calculated. Results for the reversal of the neuromuscular block, induced by the muscle relaxant rocuronium bromide (Roc), by the 6-mercapto-cyclodextrin derivatives of Examples 1-19 are presented in Table I. For comparison, the reversal activity of the parent compounds β-cyclodextrin and γ-cyclodextrin are included as well.

Structure (SMILES) | concentration at maximum reversal (at conc.) | % max reversal [%] | ED50: dose producing 50% reversal of steady-state neuromuscular block [µmol/kg]
OC1C2OC(CSCCCc3nnn[n-]3)C(OC3OC(CSCCCc4nnn[n-]4)C(OC4OC(CSCCCc5nnn[n-]5)C(OC5OC(CSCCCc6nnn[n-]6)C(OC6OC(CSCCCc7nnn[n-]7)C(OC7OC(CSCCCc8nnn[n-]8)C(OC8OC(CSCCCc9nnn[n-]9)C(OC9OC(CSCCCc%10nnn[n-]%10)C(O2)C(O)C9O)C(O)C8O)C(O)C7O)C(O)C6O)C(O)C5O)C(O)C4O)C(O)C3O)C1O.[Na+].[Na+].[Na+].[Na+].[Na+].[Na+].[Na+].[Na+] (stereo not drawn) [example 19, 6-Per-deoxy-6-per(3-(tetrazol-5-yl)propyl)thio-γ-cyclodextrin, Sodium Salt] | (1.2) μmol · kg^−1 | 109 | 0.22
O=C([O-])CCCSC[C@H]1O[C@@H]2O[C@H]3[C@H](O)[C@@H](O)[C@@H](O[C@H]4[C@H](O)[C@@H](O)[C@@H](O[C@H]5[C@H](O)[C@@H](O)[C@@H](O[C@H]6[C@H](O)[C@@H](O)[C@@H](O[C@H]7[C@H](O)[C@@H](O)[C@@H](O[C@H]8[C@H](O)[C@@H](O)[C@@H](O[C@H]9[C@H](O)[C@@H](O)[C@@H](O[C@H]1[C@H](O)[C@H]2O)O[C@@H]9CSCCCC(=O)[O-])O[C@@H]8CSCCCC(=O)[O-])O[C@@H]7CSCCCC(=O)[O-])O[C@@H]6CSCCCC(=O)[O-])O[C@@H]5CSCCCC(=O)[O-])O[C@@H]4CSCCCC(=O)[O-])O[C@@H]3CSCCCC(=O)[O-].[Na+].[Na+].[Na+].[Na+].[Na+].[Na+].[Na+].[Na+] [example 6, 6-Per-deoxy-6-per-(3carboxypropyl)thio-γ-cyclodextrin, Sodium Salt] | (0.48) μmol · kg^−1 | 108 | 0.09
CNC(=O)CSCC1OC2OC3C(CSCC(=O)NC)OC(OC4C(CSCC(=O)NC)OC(OC5C(CSCC(=O)NC)OC(OC6C(CSCC(=O)NC)OC(OC7C(CSCC(=O)NC)OC(OC8C(CSCC(=O)NC)OC(OC9C(CSCC(=O)NC)OC(OC1C(O)C2O)C(O)C9O)C(O)C8O)C(O)C7O)C(O)C6O)C(O)C5O)C(O)C4O)C(O)C3O (stereo not drawn) [example 14, 6-Per-deoxy-6-per(N-methylamidomethyl)thio-γ-cyclodextrin] | (7.3) μmol · kg^−1 | 102 | 1.54
OCCSC[C@H]1O[C@@H]2O[C@H]3[C@H](O)[C@@H](O)[C@@H](O[C@H]4[C@H](O)[C@@H](O)[C@@H](O[C@H]5[C@H](O)[C@@H](O)[C@@H](O[C@H]6[C@H](O)[C@@H](O)[C@@H](O[C@H]7[C@H](O)[C@@H](O)[C@@H](O[C@H]8[C@H](O)[C@@H](O)[C@@H](O[C@H]9[C@H](O)[C@@H](O)[C@@H](O[C@H]1[C@H](O)[C@H]2O)O[C@@H]9CSCCO)O[C@@H]8CSCCO)O[C@@H]7CSCCO)O[C@@H]6CSCCO)O[C@@H]5CSCCO)O[C@@H]4CSCCO)O[C@@H]3CSCCO [example 13, 6-Per-deoxy-6-per(2-hydroxyethyl)thio-γ-cyclodextrin] | (2.0) μmol · kg^−1 | 96 | 0.20
O=S(=O)([O-])CCSCC1OC2OC3C(CSCCS(=O)(=O)[O-])OC(OC4C(CSCCS(=O)(=O)[O-])OC(OC5C(CSCCS(=O)(=O)[O-])OC(OC6C(CSCCS(=O)(=O)[O-])OC(OC7C(CSCCS(=O)(=O)[O-])OC(OC8C(CSCCS(=O)(=O)[O-])OC(OC9C(CSCCS(=O)(=O)[O-])OC(OC1C(O)C2O)C(O)C9O)C(O)C8O)C(O)C7O)C(O)C6O)C(O)C5O)C(O)C4O)C(O)C3O.[Na+].[Na+].[Na+].[Na+].[Na+].[Na+].[Na+].[Na+] (stereo not drawn) [example 17, 6-Per-deoxy-6-per(2-sulfoethyl)thio-γ-cyclodextrin, Sodium Salt] | (1.7) μmol · kg^−1 | 106 | 0.055
